{"source": "patent US20190059368A1", "about": "“3,5-DIMETHOXYSTILBENE ANALOGS AND USES THEREOF” (The United States of America, as represented by the …, priority 2017, published 2019)", "key": {"[1]": {"system": "Meloidogyne incognita eggs", "assay": "M. incognita egg immersion assay (hatch and mobility of hatched J2)", "assay_type": "in vivo", "details": "for effect on mobility of J2 hatched from eggs immersed in solutions (in words): in vivo", "method": "(§1) Two types of assays were used to investigate activity against M. incognita: i) eggs were immersed in solutions of the test compounds, and ii) second-stage juveniles (J2) previously hatched from eggs were immersed in the test solutions. These assays were conducted with procedures similar to those in Meyer, et al. (J. Nematol. 2006, 38, 333). M. incognita race 1 (originally isolated in 2013 from a field in Maryland) was grown in the greenhouse on pepper (Capsicum annuum L.) cultivar PA-136. Egg masses were hand-picked from plant roots, rinsed three times with sterile distilled H2O, and agitated in 0.6% NaClO for 3.5 minutes to separate and surface-sterilize eggs. The eggs were rinsed in sterile distilled H2O and stored overnight at 4° C. before use in egg immersion assays. To collect J2 for direct immersion into the test compounds, sterilized eggs were placed into a hatching chamber made with a Spectra/Mesh Nylon Filter (openings 25 μm in diameter; Spectrum Laboratories Inc., Rancho Dominguez, Calif., USA) in an autoclaved dish. J2 that passed through the filter within 3 days were used immediately for assays.\n(§2) The assays were conducted in 96-well polystyrene plates. For the assays with immersed eggs, each well received approximately 50 eggs in 35 μl of sterile deionized water (SDW). For assays with previously hatched J2, a suspension of approximately 50 J2 in 35 μl of SDW was placed into each well. Each well then received 165 μl of treatment or control. The solvent used to dissolve the test chemicals was a 1:1:1 mixture referred to herein as CTD: equal parts Cremophor® EL Castor Oil (BASF Corporation, Vandalia, Ill., USA), Tween 80® (Sigma-Aldrich, St. Louis, Mo., USA), and DMSO (Sigma-Aldrich). A high and low rate of each compound was tested. After addition to the nematode suspensions in the wells, the low and high rates were 83.3 and 166.7 μg/ml of each test compound, respectively, dissolved in 0.5% and 1.0% of each of the three combined solvents. Controls were CTD equivalent to the low and high rates, and SDW. Because of the large number of treatments, the test compounds were divided into two groups for the egg immersion assays. The compounds tested in the egg immersion Assay 1 were 3, 6a, 6e, 6f, 6g, 6n, 7a, 7c, 7e, 7f, 7n, 11, 12, 16, and 17. The compounds tested in the egg immersion Assay 2 were 6b, 6h, 6i, 6j, 6k, 6l , 7b, 7g, 7h, 7i, 7j, 7k, 7l, and 7m (data not shown). Test compounds used for assays with previously hatched J2 were selected based on results with the egg assays. The five compounds tested were 6b, 6f, 6g, 6i, and 7k, high and low rates.\n(§3) Each polystyrene culture plate was covered with a plastic adhesive sheet (Excel Scientific, Inc., Victorville, Calif., USA) and incubated at 25° C. Ten wells (water controls) or five wells (all other treatments) were used per treatment in each assay. In egg immersion assays, total numbers of hatched J2, and numbers of mobile and immobile J2, were counted after 2 and 7 days incubation in the test compounds. In the first assay with previously hatched J2, the numbers of mobile and immobile J2 were counted after 1 and 2 days incubation, the treatments removed and replaced with a SDW rinse, and 2 days later the mobile vs. immobile J2 counted again. In assays with 6g and 7k, high rates and counts were made on Days 1, 2, 4, and 6, without a SDW rinse.\nData from the M. incognita assays were analyzed with the statistical package JMP 11.2.0 (SAS Institute, Cary, N.C., USA). Differences among numbers of hatched J2 in each treatment, and among percentage of mobile J2 per treatment (number mobile J2/total J2×100), were determined by the ANOVA, and means were compared using Tukey Kramer's adjustment for multiple comparisons (P<0.05). For percent mobile J2 on Day 2 in egg immersion Assays 1 and 2, and Day 4 with the five compounds in the J2 immersion assay, data were log10 (x+1)-transformed before analysis. Data presented are nontransformed means."}, "[2]": {"system": "Meloidogyne incognita second-stage juveniles (J2)", "assay": "M. incognita assay with previously hatched J2 immersed in test solutions", "details": "in vivo", "method": "as §1\nas §2, with “The five compounds tested were 6b, 6f, 6g, 6i, and 7k, high and low rates.” left out\nas §3, with “Ten wells (water controls) or five wells (all other treatments) were used per treatment in each assay.” left out, “In assays with 6g and 7k, high rates and counts were made on Days 1, 2, 4, and 6, without a SDW rinse.” left out\nData from the M. incognita assays were analyzed with the statistical package JMP 11.2.0 (SAS Institute, Cary, N.C., USA). Differences among numbers of hatched J2 in each treatment, and among percentage of mobile J2 per treatment (number mobile J2/total J2×100), were determined by the ANOVA, and means were compared using Tukey Kramer's adjustment for multiple comparisons (P<0.05). […]"}, "[3]": {"system": "Cryptococcus neoformans ATCC 90113", "assay": "Antimicrobial microplate assay (modified CLSI)", "assay_type": "cell-based", "details": "Cryptococcus neoformans, ATCC90113; Cr. neoformans", "method": "(§4) All organisms were obtained from the American Type Culture Collection (ATCC; Manassas, Va., USA) and included the fungi Cryptococcus neoformans ATCC 90113 and the bacteria Staphylococcus aureus ATCC 29213, methicillin-resistant S. aureus ATCC 33591 (MRSA), and Mycobacterium intracellulare ATCC 23068. All organisms were tested using modified versions of the CLSI (formerly NCCLS) methods. For all organisms excluding My. intracellulare, optical density was used to monitor growth. Medium supplemented with 5% AlamarBlue® (BioSource International, Camarillo, Calif., USA) was utilized for growth detection of My. intracellulare. Samples (dissolved in DMSO) were serially diluted in 20% DMSO/saline and transferred (10 μl) in duplicate to 96-well flat-bottom microplates. Inocula were prepared by correcting the OD630 of microbe suspensions in Sabouraud Dextrose for Cr. neoformans, cation-adjusted Mueller-Hinton (Difco) at pH 7.3 for Staphylococcus spp., and 5% AlamarBlue® (BioSource International) in Middlebrook 7H9 broth with OADC enrichment, pH=7.0 for My. intracellulare, to afford an assay volume of 200 μl and final target inocula of: Cr. neoformans.: b 1.5×10^3, My. intracellulare: 2.0×10^6, and Staphylococcus spp.,: 5.0×10^5 CFU/ml. Final sample test concentrations were 1/100th the DMSO stock concentration. Drug controls (Ciprofloxacin (ICN Biomedicals, Ohio, USA) for bacteria and Amphotericin B (ICN Biomedicals) for fungi) were included in each assay. All organisms were read at either 530 nm using the Biotek Powerwave XS plate reader (Bio-Tek Instruments, VT) or 544ex1590em (My. intracellulare) using the Polarstar Galaxy Plate Reader (BMG LabTechnologies, Germany) before and after incubation: Staphylococcus spp. at 35° C. for 16-20 h, Cr. neoformans at 35° C. for 70-74 h, and My. intracellulare at 37° C. and 10% CO2 for 70-74 h. IC50 Values (concentrations that afford 50% inhibition relative to controls) werecalculated using XLfit 4.2 software (IDBS, Alameda, Calif.) using fit model 201."}, "[4]": {"system": "Staphylococcus aureus ATCC 29213", "assay": "Antimicrobial microplate assay (modified CLSI)", "assay_type": "cell-based", "details": "ATCC29213, S. aureus", "method": "as §4, with “Drug controls (Ciprofloxacin (ICN Biomedicals, Ohio, USA) for bacteria and Amphotericin B (ICN Biomedicals) for fungi) were included in each assay.” left out"}, "[5]": {"system": "methicillin-resistant S. aureus ATCC 33591 (MRSA)", "assay": "Antimicrobial microplate assay (modified CLSI)", "assay_type": "cell-based", "details": "Staphylococcus aureus", "method": "as §4, with “Drug controls (Ciprofloxacin (ICN Biomedicals, Ohio, USA) for bacteria and Amphotericin B (ICN Biomedicals) for fungi) were included in each assay.” left out"}, "[6]": {"system": "Mycobacterium intracellulare ATCC 23068", "assay": "Antimicrobial microplate assay (modified CLSI, AlamarBlue)", "assay_type": "cell-based", "details": "ATCC23068, My. intracellulare", "method": "as §4, with “Drug controls (Ciprofloxacin (ICN Biomedicals, Ohio, USA) for bacteria and Amphotericin B (ICN Biomedicals) for fungi) were included in each assay.” left out"}, "Colletotrichum acutatum": {"system": "Colletotrichum acutatum", "assay": "Direct bioautography, antifungal", "assay_type": "cell-based", "details": "Colletotrichum acutatum; 2 mM; 4 μl spotted (2 μl of the positive controls); average of 2 assays; read-out: zones of inhibition", "method": "(§5) The analogs were tested for activity against Colletotrichum acutatum SIMMONDS, C. fragariae BROOKS, and C. gloeosporioides (PENZ) PENZ & SACC. in Penz., using a direct bioautography method as previously described by Tabanca et al. (Nat. Prod. Commun. 2008, 3, 1073) and Wang, et al. (J. Agric. Food Chem. 2013, 61, 4551). Technical grade commercial fungicide standards benomyl, cyprodinil, azoxystrobin, and captan were used at 0.9-1.61 μg/μl concentrations in 95% EtOH. After sample application, each TLC plate was subsequently sprayed with a spore suspension (3.0×10^5 spores/ml) of the fungus of interest and incubated in a moisture chamber for 4 days at 26° C. with a 12 hour photoperiod. Clear zones of fungal growth inhibition on the TLC plate indicated the presence of antifungal constituents in each extract or pure compound. The test compounds were prepared at 2 mM soln. in 95% EtOH, and 4 μl were spotted on the plates (2 μl of the positive controls)."}, "C. fragariae": {"system": "C. fragariae", "assay": "Direct bioautography, antifungal", "assay_type": "cell-based, Colletotrichum fragariae", "details": "Colletotrichum fragariae; 2 mM; 4 μl spotted (2 μl of the positive controls); average of 2 assays; read-out: zones of inhibition", "method": "as §5"}, "C. gloeosporioides": {"system": "C. gloeosporioides", "assay": "Direct bioautography, antifungal", "assay_type": "cell-based, Colletotrichum gloeosporioides", "details": "Colletotrichum gloeosporioides; 2 mM; 4 μl spotted (2 μl of the positive controls); average of 2 assays; read-out: zones of inhibition", "method": "as §5"}, "[7]": {"details": "7 days, high rate (166.7 μg/ml)"}}, "data": [{"smiles": "COc1cc(/C=C/c2ccc(Cl)cc2)cc(OC)c1C", "note": "[Compound 6f, (E)-1,3-dimethoxy-5-(4-chlorostyryl)-2-methylbenzene]", "values": [{"measurement": "Percent mobile J2, assay 1", "setting": "[1]; [7]", "value": 71.3, "unit": "%"}, {"measurement": "Percent mobile J2, assay 1", "setting": "[1]; 7 days, low rate (83.3 μg/ml)", "value": 93.9, "unit": "%"}, {"measurement": "effect on mobility of J2 hatched from eggs immersed in solutions (in words)", "setting": "[1]", "value": "some suppressive effect on mobility"}, {"measurement": "effect on mobility of J2 previously hatched in water and immersed directly (in words)", "setting": "[2]", "value": "only 6g and 7k had an effect on J2 mobility"}]}, {"smiles": "COc1cc(/C=C/c2ccc(Br)cc2)cc(OC)c1C", "note": "[Compound 6g, (E)-1,3-dimethoxy-5-(4-bromostyryl)-2-methylbenzene]", "values": [{"measurement": "Percent mobile J2, assay 1", "setting": "[1]; [7]", "value": 74.6, "unit": "%"}, {"measurement": "Percent mobile J2, assay 1", "setting": "[1]; 7 days, low rate (83.3 μg/ml)", "value": 89.2, "unit": "%"}, {"measurement": "effect on mobility of J2 hatched from eggs immersed in solutions (in words)", "setting": "[1]", "value": "some suppressive effect on mobility"}, {"measurement": "effect on mobility of J2 previously hatched in water and immersed directly (in words)", "setting": "[2]", "value": "had an effect on J2 mobility"}]}, {"smiles": "COc1cc(/C=C/c2ccc(Cl)c(Cl)c2)cc(OC)c1C", "note": "[Compound 6i, (E)-1,3-dimethoxy-5-(3,4-dichlorostyryl)-2-methylbenzene]", "values": [{"measurement": "Percent mobile J2, assay 2", "setting": "[1]; 2 days, high rate (166.7 μg/ml)", "value": 100.0, "unit": "%"}, {"measurement": "Percent mobile J2, assay 2", "setting": "[1]; 2 days, low rate (83.3 μg/ml)", "value": 71.0, "unit": "%"}, {"measurement": "Percent mobile J2, assay 2", "setting": "[1]; [7]", "value": 93.2, "unit": "%"}, {"measurement": "Percent mobile J2, assay 2", "setting": "[1]; 7 days, low rate (83.3 μg/ml)", "value": 87.7, "unit": "%"}, {"measurement": "effect on mobility of J2 hatched from eggs immersed in solutions (in words)", "setting": "[1]", "value": "some suppressive effect on mobility"}, {"measurement": "effect on mobility of J2 previously hatched in water and immersed directly (in words)", "setting": "[2]", "value": "only 6g and 7k had an effect on J2 mobility"}]}, {"smiles": "COc1cc(/C=C/c2ccc(O)cc2)cc(OC)c1C", "note": "[Compound 16, (E)-4-(3,5-dimethoxy-4-methylstyryl)phenol]", "values": [{"measurement": "IC50", "setting": "[3]", "value": 5.22, "unit": "µM"}, {"measurement": "MIC", "setting": "[3]", "value": 9.25, "unit": "µM"}, {"measurement": "IC50", "setting": "[4]", "value": 20.4, "unit": "µM"}, {"measurement": "MIC", "setting": "[4]", "value": 74, "unit": "µM"}, {"measurement": "IC50", "setting": "[5]", "value": 43.7, "unit": "µM"}, {"measurement": "MIC", "setting": "[5]", "value": 74, "unit": "µM"}, {"measurement": "IC50", "setting": "[6]", "value": 34, "unit": "µM"}, {"measurement": "MIC", "setting": "[6]", "value": 74, "unit": "µM"}]}, {"smiles": "Cc1cc(C2CC2)nc(Nc2ccccc2)n1", "note": "[Cyprodinil, cyprodinil]", "values": [{"measurement": "zone of inhibition at 2000 µM", "setting": "Colletotrichum acutatum", "value": 18, "unit": "mm"}, {"measurement": "zone of inhibition at 2000 µM", "setting": "C. fragariae", "value": 21.5, "unit": "mm"}, {"measurement": "zone of inhibition at 2000 µM", "setting": "C. gloeosporioides", "value": 21.5, "unit": "mm"}]}]}
